Key:
Assay type in all cases: in vivo
Digitaria sanguinalis [1] = test: Post-emergence herbicidal efficacy at 80 g/ha, DIGSA; details: rated visually after about 3 weeks vs untreated controls, 100% = plants have died
From the text: (§1) Unwanted plants/weeds: • ABUTH: Abutilon theophrasti • ALOMY: Alopecurus myosuroides • AMARE: Amaranthus retroflexus • DIGSA: Digitaria sanguinalis • ECHCG: Echinochloa crus-galli • KCHSC: Kochia scoparia • LOLRI: Lolium rigidum • MATIN: Matricaria inodora • POAAN: Poa annua • POLCO: Polygonum convolvulus • SETVI: Setaria viridis • STEME: Stellaria media • VERPE: Veronica persica • VIOTR: Viola tricolor A. Post-Emergence Herbicidal Efficacy at 320 g/ha
(§2) Seeds of monocotyledonous and dicotyledonous weeds and crop plants were placed in sandy loam in plastic or organic planting pots, covered with soil and cultivated in a greenhouse under controlled growth conditions. 2 to 3 weeks after sowing, the test plants were treated at the one-leaf stage. The compounds of the invention, formulated in the form of wettable powders (WP) or as emulsion concentrates (EC), were then sprayed onto the green parts of the plants as aqueous suspension or emulsion with addition of 0.5% additive at a water application rate of 600 l/ha (converted). After the test plants had been kept in the greenhouse under optimum growth conditions for about 3 weeks, the activity of the preparations was rated visually in comparison to untreated controls. For example, 100% activity=the plants have died, 0% activity=like control plants.
(§3) Tables B1 to B11 below show the effects of selected compounds of the general formula (I) according to Table 1 on various harmful plants and an application rate corresponding to 80 g/ha, which were obtained by the experimental procedure mentioned above.

Echinochloa crus-galli [2] = test: Pre-emergence herbicide efficacy at 80 g/ha, ECHCG; details: scored visually after about 3 weeks vs untreated controls, 100% = plants have died
Summary of the method: (§4)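 Compounds are applied to soil covering sown seeds (aqueous suspension or emulsion, 0.5% additive, 600 l/ha), before emergence. Pots stay in the greenhouse for about 3 weeks. Damage is then judged by eye as % of control, 100% meaning plant death.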

Matricaria inodora = test: Pre-emergence herbicide efficacy at 80 g/ha, MATIN; details: scored visually after about 3 weeks vs untreated controls, 100% = plants have died
From the text: as §1
(§5) Seeds of monocotyledonous and dicotyledonous weed plants and crop plants were placed in plastic or organic planting pots and covered with soil. The compounds of the invention, formulated in the form of wettable powders (WP) or as emulsion concentrates (EC), were then applied to the surface of the covering soil as aqueous suspension or emulsion with addition of 0.5% additive at a water application rate equivalent to 600 l/ha. After the treatment, the pots were placed in a greenhouse and kept under good growth conditions for the test plants. After about 3 weeks, the efficacy of the preparations was scored visually in comparison with untreated controls as percentages. For example, 100% activity=the plants have died, 0% activity=like control plants.
(§6) Tables D1 to D12 below show the effects of selected compounds of the general formula (I) according to Table 1 on various harmful plants and an application rate corresponding to 80 g/ha, which were obtained by the experimental procedure mentioned above.

Abutilon theophrasti [3] = test: Pre-emergence herbicide efficacy at 80 g/ha, ABUTH; details: scored visually after about 3 weeks vs untreated controls, 100% = plants have died
From the text: as §1, §5, §6

PHBPU = test: Post-emergence herbicidal efficacy at 80 g/ha, PHBPU; details: rated visually after about 3 weeks vs untreated controls, 100% = plants have died
Description: as §2, with “plants. Tables B1 to B11 below show the effects of selected compounds of the general formula (I) according to Table 1 on various harmful plants and an application rate corresponding to 80 g/ha, which were obtained by the experimental procedure mentioned above.” for “plants.”

Alopecurus myosuroides = test: Pre-emergence herbicide efficacy at 80 g/ha, ALOMY; details: scored visually after about 3 weeks vs untreated controls, 100% = plants have died
From the text: as §1, §5, §6

Setaria viridis [4] = test: Post-emergence herbicidal efficacy at 80 g/ha, SETVI; details: rated visually after about 3 weeks vs untreated controls, 100% = plants have died
From the text: as §1, §2, §3

Amaranthus retroflexus [5] = test: Pre-emergence herbicide efficacy at 80 g/ha, AMARE; details: scored visually after about 3 weeks vs untreated controls, 100% = plants have died
Summary of the method: as §4

Veronica persica [6] = test: Post-emergence herbicidal efficacy at 80 g/ha, VERPE; details: rated visually after about 3 weeks vs untreated controls, 100% = plants have died
Summary of the method: (§7)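 Post-emergence greenhouse test: one-leaf weeds sprayed with formulated compound (0.5% additive, 600 l/ha), visually rated about 3 weeks later against untreated controls.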

Viola tricolor [7] = test: Pre-emergence herbicide efficacy at 80 g/ha, VIOTR
Summary of the method: as §4

Amaranthus retroflexus [8] = test: Post-emergence herbicidal efficacy at 80 g/ha, AMARE; details: rated visually after about 3 weeks vs untreated controls, 100% = plants have died
Summary of the method: as §7

Polygonum convolvulus [9] = test: Post-emergence herbicidal efficacy at 80 g/ha, POLCO; details: rated visually after about 3 weeks vs untreated controls, 100% = plants have died
From the text: as §1
as §2, with “plants. […]” for “plants.”

Veronica persica [10] = test: Pre-emergence herbicide efficacy at 80 g/ha, VERPE
Summary of the method: as §4

Abutilon theophrasti [11] = test: Post-emergence herbicidal efficacy at 80 g/ha, ABUTH; details: rated visually after about 3 weeks vs untreated controls, 100% = plants have died
From the text: as §1, §2, §3

Viola tricolor [12] = test: Post-emergence herbicidal efficacy at 80 g/ha, VIOTR; details: rated visually after about 3 weeks vs untreated controls, 100% = plants have died
Summary of the method: as §7

Setaria viridis [13] = test: Pre-emergence herbicide efficacy at 80 g/ha, SETVI
Summary of the method: as §4

Echinochloa crus-galli [14] = test: Post-emergence herbicidal efficacy at 80 g/ha, ECHCG; details: rated visually after about 3 weeks vs untreated controls, 100% = plants have died
From the text: as §1, §2, §3

Kochia scoparia [15] = test: Post-emergence herbicidal efficacy at 80 g/ha, KCHSC; details: rated visually after about 3 weeks vs untreated controls, 100% = plants have died
Summary of the method: as §7

Polygonum convolvulus [16] = test: Pre-emergence herbicide efficacy at 80 g/ha, POLCO; details: scored visually after about 3 weeks vs untreated controls, 100% = plants have died
Summary of the method: as §4

Lolium rigidum = test: Pre-emergence herbicide efficacy at 80 g/ha, LOLRI; details: scored visually after about 3 weeks vs untreated controls, 100% = plants have died
From the text: as §1
as §5, with “control plants. […]” for “control plants.”

Kochia scoparia [17] = test: Pre-emergence herbicide efficacy at 80 g/ha, KCHSC; details: scored visually after about 3 weeks vs untreated controls, 100% = plants have died
From the text: as §1, §5, §6

Digitaria sanguinalis [18] = test: Pre-emergence herbicide efficacy at 80 g/ha, DIGSA; details: scored visually after about 3 weeks vs untreated controls, 100% = plants have died
Summary of the method: as §4

Compound | Post-emergence efficacy at 80 g/ha against DIGSA in % (Digitaria sanguinalis [1]) | Pre-emergence efficacy at 80 g/ha against ECHCG in % (Echinochloa crus-galli [2]) | Pre-emergence efficacy at 80 g/ha against ABUTH in % (Abutilon theophrasti [3]) | Pre-emergence efficacy at 80 g/ha against ALOMY in % (Alopecurus myosuroides) | Post-emergence efficacy at 80 g/ha against SETVI in % (Setaria viridis [4]) | Pre-emergence efficacy at 80 g/ha against AMARE in % (Amaranthus retroflexus [5]) | Post-emergence efficacy at 80 g/ha against VERPE in % (Veronica persica [6]) | Pre-emergence efficacy against VIOTR (Viola tricolor [7]) | Post-emergence efficacy at 80 g/ha against AMARE in % (Amaranthus retroflexus [8]) | Pre-emergence efficacy against VERPE (Veronica persica [10]) | Post-emergence efficacy at 80 g/ha against ABUTH in % (Abutilon theophrasti [11]) | Post-emergence efficacy at 80 g/ha against VIOTR in % (Viola tricolor [12]) | Pre-emergence efficacy against SETVI (Setaria viridis [13]) | Post-emergence efficacy at 80 g/ha against ECHCG in % (Echinochloa crus-galli [14]) | Post-emergence efficacy at 80 g/ha against KCHSC in % (Kochia scoparia [15]) | Pre-emergence efficacy at 80 g/ha against POLCO in % (Polygonum convolvulus [16]) | Pre-emergence efficacy at 80 g/ha against LOLRI in % (Lolium rigidum) | Pre-emergence efficacy at 80 g/ha against KCHSC in % (Kochia scoparia [17]) | Pre-emergence efficacy at 80 g/ha against DIGSA in % (Digitaria sanguinalis [18]) | other results
FC(F)c1cc(-c2c(Cl)cccc2Nc2ncc(Cl)cn2)on1 [Example 1-61] | 100% | 100% | 90% | 90% | 100% | 100% | 100% | 100% | 100% | 90% | 100% | 100% | 100% | 100% | 100% | 80% | 90% | 100% | 100% | Pre-emergence efficacy at 80 g/ha against MATIN in % (Matricaria inodora): 100%; Post-emergence efficacy at 80 g/ha against PHBPU in % (PHBPU): 100%; Post-emergence efficacy at 80 g/ha against POLCO in % (Polygonum convolvulus [9]): 100%
Fc1cnc(Nc2cccc(Cl)c2-c2cc(C(F)F)no2)nc1 [Example 1-62] | 80% | 100% | 100% | 100% | 100% | 100% | 100% | 100% | 100% | 100% | 90% | 100% | 100% | 80% | 100% | 80% | 100% | 100% | 100% | –

— US20250311727A1, “SUBSTITUTED 2-AMINOAZINES AND SALTS THEREOF, AND USE THEREOF AS HERBICIDAL ACTIVE SUBSTANCES” (BAYER AKTIENGESELLSCHAFT, priority 2022, published 2025)
